# Test results from PubChem BioAssay (NCI).
# Several values for one entry are separate records, joined by “and”; a condition that tells them apart may be missing. Identical values can stand only once.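 Exposure lasted 48 hours, with cells grown in 96-well plates and compounds tested at five concentrations. GI50 marks 50% less growth. TGI: concentration producing complete growth inhibition.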
# What was measured:
# Experiment in all cases: growth of human tumour cells (NCI), 48 h
# [1] = system: BT-549 breast
# [2] = system: NCI-H226 lung
# [3] = system: SNB-19 CNS
# [4] = system: RXF 393 renal
# [5] = system: UACC-62 melanoma
# [6] = system: MCF7 breast
# [7] = system: A498 renal
# [8] = system: UO-31 renal
# [9] = system: CAKI-1 renal
# [10] = system: SK-MEL-2 melanoma
# [11] = system: SW-620 colon
# [12] = system: ACHN renal
# [13] = system: UACC-257 melanoma
# [14] = system: HCC-2998 colon
# [15] = system: LOX IMVI melanoma
Structure (SMILES),TGI [1],TGI [2] [µM],TGI [3] [µM],TGI [4] [µM],TGI [5],TGI [6] [µM],TGI [7],TGI [8],TGI [9] [µM],TGI [10],TGI [11] [µM],TGI [12] [µM],TGI [13],TGI [14],TGI [15] [µM],GI50 [1],GI50 [3],GI50 [11]
CO/C(=N/N1CC1C(F)(F)F)c1ccncc1 (stereo not given),> 100 µM,> 100,> 100,> 100,> 100 µM,> 100,> 100 µM,> 100 µM,> 100,> 100 µM,,,,,,,,
CCOC(=O)C1C(=O)CC(C)(O)C(C(=O)OCC)C1c1ccc(N(C)C)cc1 (stereo not given),> 100 µM,> 100,> 100,> 100,> 100 µM,> 100,> 100 µM,> 100 µM,> 100,> 100 µM,> 100,> 100,> 100 µM,> 100 µM,> 100,,,
O=S(=O)(O)c1cc(S(=O)(=O)O)c2c(N=Nc3cccc4ccccc34)c(O)ccc2c1,> 100 µM,> 100,> 100,> 100,> 100 µM,> 100,> 100 µM,> 100 µM,> 100,> 100 µM,> 100,> 100,> 100 µM,> 100 µM,> 100,,,
O=C(O)c1ccc(Nc2ccnc3cc(Cl)ccc23)cc1O,> 100 µM,> 100,> 100,> 100,> 100 µM,> 100,> 100 µM,> 100 µM,> 100,> 100 µM,> 100,> 100,> 100 µM,> 100 µM,> 100,,,
COC(=O)[C@H](CCSC)NC(=O)c1ccc(CNC(=O)/C=C/c2cccc(Oc3ccccc3)c2)cc1,> 100 µM,> 62.9,> 100,55.4,38.2 µM,> 100,48.3 µM,> 100 µM,> 80.3,32.8 µM,> 100,> 100,26.9 µM,> 84 µM,> 100,,,
O=C1CC2[C@@H](N3CCCC3)CCC(N1Cc1ccccc1)C2(O)O (stereo not given in full),> 100 µM,> 100,> 100,> 100,> 100 µM,> 100,> 100 µM,> 100 µM,> 100,,> 100,> 100,> 100 µM,> 100 µM,> 100,,,
O=C(O)C(Cc1ccc(O)cn1)NC(=O)C(F)(F)F (stereo not given),> 100 µM,> 100,> 100,> 100,,> 100,> 100 µM,> 100 µM,> 100,,> 100,> 100,> 100 µM,> 100 µM,> 100,,,
CCOC(=O)/C(C#N)=C(/NS(=O)(=O)c1cc(C)c(Cl)cc1[S-])[n+]1ccc(N(C)C)cc1,> 100 µM,> 100,> 100,> 100,> 100 µM,> 100,> 100 µM,> 100 µM,> 100,> 100 µM,,> 100,> 100 µM,> 100 µM,,,,
Cn1c(=O)n(-c2c3ccccc3c(Cl)c3ccccc23)n(C(C)(C)C)c1=O,> 100 µM,> 100,> 100,,> 100 µM,> 100,> 100 µM,> 100 µM,> 100,> 100 µM,> 100,> 100,> 100 µM,> 100 µM,> 100,,,
CC1OC(OC2C(OC(=O)[C@]34CCC(C)(C)C[C@H]3C3=CC[C@@H]5[C@@]6(C)CC[C@H](OC7OC(C(=O)O)C(O)C(O)C7O)C(C)(C)[C@@H]6CC[C@@]5(C)[C@]3(C)CC4)OCC(O)C2O)C(O)C(O)C1OC1OCC(O)C(O)C1O (stereo not given in full),> 100 µM and 37.3 µM,> 100,> 100,> 100,86.5 µM and > 100 µM,> 100,33.2 µM and 35.7 µM,39.1 µM and 34.8 µM,> 100,> 100 µM and 63.7 µM,> 100,,93.1 µM and > 100 µM,33.6 µM and 34 µM,> 100,40 µM and 18.4 µM,> 100 µM and 47.5 µM,98 µM and 45.1 µM
CN(CCc1ccc(Br)cc1)CCN1CCCCC1,96.1 µM,> 100,> 100,> 100,,54.4,63.2 µM,> 100 µM,> 100,64.3 µM,> 100,> 100,> 100 µM,> 100 µM,94.2,,,
Cc1ccc(S(=O)(=O)Nn2c(-c3ccccc3)c(C#N)c(-c3ccc(Cl)cc3)c(C#N)c2=O)cc1,61.2 µM,,> 100,> 100,33 µM,> 100,51.1 µM,,> 100,52.4 µM,> 100,> 100,> 100 µM,> 100 µM,52.2,,,
CCOC(=O)Cc1ccc(Nc2nc3cc(C(F)(F)F)ccc3nc2C(=O)OCC)cc1,> 100 µM,91.6,> 100,51.5,> 100 µM,> 100,> 100 µM,> 100 µM,> 100,> 100 µM,> 100,> 100,> 100 µM,,> 100,,,
CCOC(=O)C(NNS(=O)(=O)c1ccc(C)cc1)S(=O)(=O)C(F)(F)C(F)(F)C(F)(F)C(F)(F)F (stereo not given),> 100 µM,> 100,> 100,,> 100 µM,> 100,> 100 µM,> 100 µM,> 100,> 100 µM,> 100,> 100,> 100 µM,> 100 µM,> 100,,,
COC(=O)c1cc(C#N)[nH]c1-c1ccsc1,> 100 µM,> 100,,> 100,> 100 µM,> 100,> 100 µM,> 100 µM,> 100,> 100 µM,> 100,> 100,> 100 µM,> 100 µM,> 100,,,
